Reference: patent US11040028B2, “Penicinotam derivative, preparation method and use thereof” (OCEAN UNIVERSITY OF CHINA, priority 2017, dated 2021)

Key:
Type in all cases: cell-based
[1] = system: human hepatic stellate cells LX-2; assay: Anti-fibrosis activity test: inhibition of proliferation of human hepatic stellate cells LX-2 (CCK-8); details: Homo sapiens, 48 h
Outline: (§1)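 48 h compound treatment of fibroblast-type cells seeded at 2×10^4 cells/mL, 37° C, 5% CO2; viability by CCK-8 (2 h, A450). Inhibition rate calculated against blank control, IC50 by curve fitting; pirfenidone served as reference.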

[2] = system: cardiac fibroblast RAT-iCell-C002; assay: Anti-fibrosis activity test: inhibition of proliferation of cardiac fibroblast RAT-iCell-C002 (CCK-8); details: Cardiac fibroblast, 48 h
Outline: as §1

NF-κB = assay: Immunological activity test: inhibition of NF-κB activity; details: initial concentration of 30 μM; a/b isomers given as first/second symbol; read-out: IC50 (μM), inhibitory activity against NF-κB
Outline: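 Single-point testing at 30 μM preceded IC50 determination.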

[3] = system: human lung fibroblasts HFL1; assay: Anti-fibrosis activity test: inhibition of proliferation of human lung fibroblasts HFL1 (CCK-8); details: Homo sapiens, HFL1, 48 h
Outline: as §1

BHK-21 cells = assay: Anti-fibrosis activity test: inhibition of BHK-21 cell proliferation (CCK-8); details: Mesocricetus auratus, BHK-21, 48 h
Outline: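 Cells plated 2×10^4 cells/mL; 24 h attach; compound dilutions, triplicate, 48 h, 37° C/5% CO2; CCK-8 2 h; A450; IR = (1−Ai/Ao)×100%; IC50 by curve fit.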

[4] = system: mouse macrophages (RAW264.7); assay: Lipopolysaccharide-induced NO secretion in macrophages (Griess); details: Mus musculus, RAW264.7, 24 h, RAW264.7, LPS 1 μg/ml, a/b isomers given as first/second symbol, read-out: IC50 (μM), inhibition of lipopolysaccharide-induced NO secretion in macrophages
Outline: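 RAW264.7 macrophages in DMEM with 10% FBS received test samples at several concentrations and were stimulated with 1 μg/ml LPS for 24 h. NO in the supernatant was measured with the Griess reagent at 548 nm, […].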

[5] = system: human fibrosarcoma cells HT-1080; assay: Anti-fibrosis activity test: inhibition of proliferation of human fibrosarcoma cells HT-1080 (CCK-8); details: Homo sapiens, HT-1080, 48 h
Outline: as §1

[6] = system: human dermal fibroblasts CCC-ESF-1; assay: Anti-fibrosis activity test: inhibition of proliferation of human dermal fibroblasts CCC-ESF-1 (CCK-8); details: Fibroblast
Outline: as §1

[7] = system: human embryonic lung fibroblast IMR-90; assay: Anti-fibrosis activity test: inhibition of proliferation of human embryonic lung fibroblast IMR-90 (CCK-8)
Outline: as §1

[8] = human hepatic stellate cells LX-2, CCK-8, 48 hours
[9] = cardiac fibroblast RAT-iCell-C002, CCK-8, 48 hours
[10] = human lung fibroblasts HFL1, CCK-8, 48 hours
[11] = CCK-8, 48 hours after administration
[12] = human fibrosarcoma cells HT-1080, CCK-8, 48 hours
[13] = human dermal fibroblasts CCC-ESF-1, CCK-8, 48 hours
[14] = human embryonic lung fibroblast IMR-90, CCK-8, 48 hours
[15] = Homo sapiens, CCC-ESF-1 cells, 48 h, CCK-8
[16] = Homo sapiens, IMR-90 cells, 48 h, CCK-8

IC50 (NF-κB) [µM] | IC50 [4] [µM] | IC50 [5, 12] [mM] | IC50 ([5]; HT-1080 cells, 48 h, CCK-8) [mM] | SMILES | IC50 [1, 8] [mM] | IC50 [2, 9] [mM] | IC50 [3, 10] [mM] | IC50 (BHK-21 cells; [11]) [mM] | IC50 [6, 13] [mM] | IC50 [7, 14] [mM] | IC50 ([1]; LX-2, 48 h, LX-2 cells, CCK-8) [mM] | IC50 ([2]; RAT-iCell-C002 cells, CCK-8) [mM] | IC50 ([3]; HFL1 cells, 48 h, CCK-8) [mM] | IC50 (BHK-21 cells; 48 h, CCK-8) [mM] | IC50 [6, 15] [mM] | IC50 [7, 16] [mM]
1 to 10 | 0.1 to 1 | 0.05 to 5 | – | O=C1c2c(n(Cc3ccccc3C(F)(F)F)c3ccccc3c2=O)-c2cccn21 [Compound 581a, 4-(2-(Trifluoromethyl)benzyl)-9H-pyrrolizino[1,2-b]quinoline-9,10(4H)-dione] | 0.05 to 5 | 0.05 to 5 | 0.05 to 5 | 0.05 to 5 | 0.05 to 5 | 0.05 to 5 | – | – | – | – | – | –
1 to 10 | 1 to 10 | 0.05 to 5 | – | CCOC(=O)Cn1c2c(c(=O)c3ccccc31)C(=O)n1cccc1-2 [Compound 654a, Ethyl 2-(9,10-dioxo-9H-pyrrolizino[1,2-b]quinolin-4(10H)-yl)acetate] | 0.05 to 5 | 0.05 to 5 | 0.05 to 5 | 5 to 20 | < 0.05 | 0.05 to 5 | – | – | – | – | – | –
1 to 10 | 1 to 10 | 0.05 to 5 | – | O=C1c2c(nc3cccc(F)c3c2OCc2ccc(F)cc2)-c2cccn21 [Compound 468b, 8-fluoro-9-((4-fluorobenzyl)oxy)-10H-pyrrolizino[1,2-b]quinolin-10-one] | 0.05 to 5 | 0.05 to 5 | 0.05 to 5 | 0.05 to 5 | 0.05 to 5 | 0.05 to 5 | – | – | – | – | – | –
1 to 10 | 1 to 10 | – | 0.05 to 5 | Cc1ccc2[nH]c3c(c(=O)c2c1)C(=O)n1cccc1-3 [Compound 696a, 7-Methyl-9H-pyrrolizino[1,2-b]quinoline-9,10(4H)-dione] | – | – | – | – | – | – | 0.05 to 5 | 0.05 to 5 | 0.05 to 5 | 0.05 to 5 | 0.05 to 5 | 0.05 to 5
1 to 10 | 1 to 10 | 0.05 to 5 | – | O=C(O)COc1c2c(nc3ccccc13)-c1cccn1C2=O [Compound 100b, 2-((10-oxo-10H-pyrrolizino[1,2-b]quinolin-9-yl)oxy)acetic acid] | 0.05 to 5 | 0.05 to 5 | 0.05 to 5 | 0.05 to 5 | 0.05 to 5 | 0.05 to 5 | – | – | – | – | – | –
10 to 50 | 1 to 10 | 0.05 to 5 | – | O=C1c2c(nc3ccccc3c2OCC(F)(F)F)-c2cccn21 [Compound 657b, 9-(2,2,2-trifluoroethoxy)-10H-pyrrolizino[1,2-b]quinolin-10-one] | 0.05 to 5 | 0.05 to 5 | 0.05 to 5 | 0.05 to 5 | 0.05 to 5 | 0.05 to 5 | – | – | – | – | – | –
1 to 10 | 1 to 10 | – | 0.05 to 5 | O=C1c2c(nc3ccccc3c2OCCCN2CCCCC2)-c2cccn21 [Compound 666b, 9-(3-(piperidin-1-yl)propoxy)-10H-pyrrolizino[1,2-b]quinolin-10-one] | – | – | – | – | – | – | 0.05 to 5 | 0.05 to 5 | 0.05 to 5 | 0.05 to 5 | 0.05 to 5 | 0.05 to 5
1 to 10 | 1 to 10 | 0.05 to 5 | – | O=C1c2c(nc3ccccc3c2OCCCO)-c2cccn21 [Compound 16b, 9-(3-hydroxypropoxy)-10H-pyrrolizino[1,2-b]quinolin-10-one] | 0.05 to 5 | 0.05 to 5 | 0.05 to 5 | 0.05 to 5 | 0.05 to 5 | 0.05 to 5 | – | – | – | – | – | –
1 to 10 | 1 to 10 | 0.05 to 5 | – | COc1cccc2nc3c(c(O)c12)C(=O)n1cccc1-3 [Compound 473b, 9-hydroxy-8-methoxy-10H-pyrrolizino[1,2-b]quinolin-10-one] | 0.05 to 5 | 0.05 to 5 | 0.05 to 5 | 0.05 to 5 | 0.05 to 5 | 0.05 to 5 | – | – | – | – | – | –
1 to 10 | 1 to 10 | 0.05 to 5 | – | CN(C)CCCOc1c2c(nc3ccccc13)-c1cccn1C2=O [Compound 658b, 9-(3-(dimethylamino)propoxy)-10H-pyrrolizino[1,2-b]quinolin-10-one] | 0.05 to 5 | 0.05 to 5 | 0.05 to 5 | 0.05 to 5 | 0.05 to 5 | 0.05 to 5 | – | – | – | – | – | –
1 to 10 | 1 to 10 | 0.05 to 5 | – | O=C1c2c(nc3ccccc3c2OCc2cccc(Cl)c2)-c2cccn21 [Compound 596b, 9-((3-chlorobenzyl)oxy)-10H-pyrrolizino[1,2-b]quinolin-10-one] | 0.05 to 5 | 0.05 to 5 | 0.05 to 5 | 0.05 to 5 | 0.05 to 5 | 0.05 to 5 | – | – | – | – | – | –
1 to 10 | 0.1 to 1 | 0.05 to 5 | – | C#CCn1c2c(c(=O)c3ccccc31)C(=O)n1cccc1-2 [Compound 7a, 4-(Prop-2-yn-1-yl)-9H-pyrrolizino[1,2-b]quinoline-9,10(4H)-dione] | 0.05 to 5 | 0.05 to 5 | 0.05 to 5 | < 0.05 | < 0.05 | 0.05 to 5 | – | – | – | – | – | –
1 to 10 | 10 to 50 | 0.05 to 5 | – | N#Cc1ccccc1-c1ccc(Cn2c3c(c(=O)c4ccccc42)C(=O)n2cccc2-3)cc1 [Compound 648a, 4′-((9,10-Dioxo-9H-pyrrolizino[1,2-b]quinolin-4(10H)-yl)methyl)-[1,1′-biphenyl]-2-carbonitrile] | 0.05 to 5 | 0.05 to 5 | 0.05 to 5 | 0.05 to 5 | 0.05 to 5 | 0.05 to 5 | – | – | – | – | – | –
1 to 10 | 1 to 10 | 0.05 to 5 | – | O=C1c2c(n(Cc3ccc(OC(F)(F)F)cc3)c3ccccc3c2=O)-c2cccn21 [Compound 592a, 4-(4-(Trifluoromethoxy)benzyl)-9H-pyrrolizino[1,2-b]quinoline-9,10(4H)-dione] | 0.05 to 5 | 0.05 to 5 | 0.05 to 5 | 0.05 to 5 | 0.05 to 5 | 0.05 to 5 | – | – | – | – | – | –
1 to 10 | 1 to 10 | – | 0.05 to 5 | O=C1c2c(nc3ccccc3c2OCCCN2CCNCC2)-c2cccn21 [Compound 669b, 9-(3-(piperazin-1-yl)propoxy)-10H-pyrrolizino[1,2-b]quinolin-10-one] | – | – | – | – | – | – | 0.05 to 5 | 0.05 to 5 | 0.05 to 5 | 0.05 to 5 | 0.05 to 5 | 0.05 to 5
1 to 10 | 1 to 10 | 0.05 to 5 | – | CN(C)CCn1c2c(c(=O)c3ccccc31)C(=O)n1cccc1-2 [Compound 12a, 4-(2-(Dimethylamino)ethyl)-9H-pyrrolizino[1,2-b]quinoline-9,10(4H)-dione] | 0.05 to 5 | 0.05 to 5 | 0.05 to 5 | 0.05 to 5 | 0.05 to 5 | 0.05 to 5 | – | – | – | – | – | –
1 to 10 | 1 to 10 | 0.05 to 5 | – | N#Cc1ccccc1Cn1c2c(c(=O)c3ccccc31)C(=O)n1cccc1-2 [Compound 577a, 2-((9,10-Dioxo-9H-pyrrolizino[1,2-b]quinolin-4(10H)-yl)methyl)benzonitrile] | < 0.05 | 0.05 to 5 | 0.05 to 5 | 0.05 to 5 | 0.05 to 5 | 0.05 to 5 | – | – | – | – | – | –
0.1 to 1 | 1 to 10 | < 0.05 | – | O=C1c2c(nc3ccccc3c2OCc2ccc(F)c(F)c2F)-c2cccn21 [Compound 584b, 9-((2,3,4-trifluorobenzyl)oxy)-10H-pyrrolizino[1,2-b]quinolin-10-one] | 0.05 to 5 | 0.05 to 5 | 0.05 to 5 | 0.05 to 5 | 0.05 to 5 | 5 to 20 | – | – | – | – | – | –
1 to 10 | 1 to 10 | 0.05 to 5 | – | O=C1c2c(n(Cc3ccccc3I)c3ccccc3c2=O)-c2cccn21 [Compound 576a, 4-(2-Iodobenzyl)-9H-pyrrolizino[1,2-b]quinoline-9,10(4H)-dione] | 0.05 to 5 | 0.05 to 5 | 0.05 to 5 | 0.05 to 5 | 0.05 to 5 | 0.05 to 5 | – | – | – | – | – | –
